Assay results: ChEMBL document CHEMBL1122862, “Synthesis and antibacterial activity of 2,2'-dithiobis(benzamide) derivatives against Mycobacterium species” (1985)
Values after ≈ are worked out from the molar mass of the structure shown.

What was measured:
Format in all cases: functional
[1] = test system: Mycobacterium tuberculosis; test: Antibacterial activity against Mycobacterium tuberculosis H37Rv.
Mycobacterium kansasii = test: Antibacterial activity against Mycobacterium kansasii
[2] = test system: Mycobacterium intracellulare; test: Antibacterial activity against Mycobacterium intracellular.

SMILES	MIC [1]	MIC (Mycobacterium kansasii)	MIC [2]
CN[C@@H]1[C@H](O[C@H]2[C@H](O[C@H]3[C@H](O)[C@@H](O)[C@H](N=C(N)N)[C@@H](O)[C@@H]3N=C(N)N)O[C@@H](C)[C@]2(O)C=O)O[C@@H](CO)[C@H](O[C@@H]2O[C@H](CO)[C@@H](O)[C@H](O)[C@@H]2O)[C@H]1O	0.78 µg/mL (≈ 1.05 µM)	3.13 µg/mL (≈ 4.21 µM)	12.5 µg/mL (≈ 16.8 µM)
O=C(c1ccccc1SSc1ccccc1C(=O)N1CCN(C/C=C/c2ccccc2)CC1)N1CCN(C/C=C/c2ccccc2)CC1	100 µg/mL (≈ 148 µM)	> 100 µg/mL	> 100 µg/mL
CCOC(=O)CNC(=O)c1ccccc1SSc1ccccc1C(=O)NCC(=O)OCC	25 µg/mL (≈ 52.5 µM)	25 µg/mL (≈ 52.5 µM)	25 µg/mL (≈ 52.5 µM)
O=C(NCC(O)c1ccccc1)c1ccccc1SSc1ccccc1C(=O)NCC(O)c1ccccc1 (centres undefined)	100 µg/mL (≈ 184 µM)	100 µg/mL (≈ 184 µM)	> 100 µg/mL
CCCCc1ccc(NC(=O)c2ccccc2SSc2ccccc2C(=O)Nc2ccc(CCCC)cc2)cc1	0.78 µg/mL (≈ 1.37 µM)	12.5 µg/mL (≈ 22 µM)	12.5 µg/mL (≈ 22 µM)
O=C(NCC(O)c1ccc(O)c(O)c1)c1ccccc1SSc1ccccc1C(=O)NCC(O)c1ccc(O)c(O)c1 (centres undefined)	100 µg/mL (≈ 164 µM)	> 100 µg/mL	> 100 µg/mL
O=C(Nc1cccc(C(F)(F)F)c1)c1ccccc1SSc1ccccc1C(=O)Nc1cccc(C(F)(F)F)c1	12.5 µg/mL (≈ 21.1 µM)	25 µg/mL (≈ 42.2 µM)	25 µg/mL (≈ 42.2 µM)
O=C(NCCNCCO)c1ccccc1SSc1ccccc1C(=O)NCCNCCO	25 µg/mL (≈ 52.2 µM)	> 100 µg/mL	> 100 µg/mL
O=C(NCc1cccc2ccccc12)c1ccccc1SSc1ccccc1C(=O)NCc1cccc2ccccc12	> 100 µg/mL	> 100 µg/mL	> 100 µg/mL
O=C(Nc1cc2ccccc2cc1O)c1ccccc1SSc1ccccc1C(=O)Nc1cc2ccccc2cc1O	12.5 µg/mL (≈ 21.2 µM)	25 µg/mL (≈ 42.5 µM)	50 µg/mL (≈ 84.9 µM)
CCn1c2ccccc2c2cc(NC(=O)c3ccccc3SSc3ccccc3C(=O)Nc3ccc4c(c3)c3ccccc3n4CC)ccc21	3.13 µg/mL (≈ 4.53 µM)	50 µg/mL (≈ 72.4 µM)	> 100 µg/mL
O=c1c2ccccc2sn1CO	12.5 µg/mL (≈ 69 µM)	12.5 µg/mL (≈ 69 µM)	12.5 µg/mL (≈ 69 µM)
CCCCCCCCCCCCCCCC(=O)OCCNC(=O)c1ccccc1SSc1ccccc1C(=O)NCCOC(=O)CCCCCCCCCCCCCCC	100 µg/mL (≈ 115 µM)	100 µg/mL (≈ 115 µM)	100 µg/mL (≈ 115 µM)
O=C(Nc1ccc(S(=O)(=O)Nc2nc3ccccc3s2)cc1)c1ccccc1SSc1ccccc1C(=O)Nc1ccc(S(=O)(=O)Nc2nc3ccccc3s2)cc1	100 µg/mL (≈ 113 µM)	50 µg/mL (≈ 56.7 µM)	100 µg/mL (≈ 113 µM)
CN1CCCN(C(=O)c2ccccc2SSc2ccccc2C(=O)N2CCCN(C)CC2)CC1	> 100 µg/mL	> 100 µg/mL	> 100 µg/mL
O=C(Nc1ccc(Br)c2ccccc12)c1ccccc1SSc1ccccc1C(=O)Nc1ccc(Br)c2ccccc12	12.5 µg/mL (≈ 17.5 µM)	50 µg/mL (≈ 70 µM)	> 100 µg/mL
O=C(c1ccccc1SSc1ccccc1C(=O)N1C(=O)c2ccccc2C1=O)N1C(=O)c2ccccc2C1=O	> 100 µg/mL	> 100 µg/mL	> 100 µg/mL
O=C(NC1CCC(O)CC1)c1ccccc1SSc1ccccc1C(=O)NC1CCC(O)CC1 (centres undefined)	12.5 µg/mL (≈ 25 µM)	25 µg/mL (≈ 49.9 µM)	25 µg/mL (≈ 49.9 µM)
CCOc1ccc2nc(NC(=O)c3ccccc3SSc3ccccc3C(=O)Nc3nc4ccc(OCC)cc4s3)sc2c1	> 100 µg/mL	> 100 µg/mL	> 100 µg/mL
CC(CCc1ccccc1)NC(=O)c1ccccc1SSc1ccccc1C(=O)NC(C)CCc1ccccc1 (centres undefined)	100 µg/mL (≈ 176 µM)	> 100 µg/mL	> 100 µg/mL
CCCCCCCCCCCC(=O)OCCCNC(=O)c1ccccc1SSc1ccccc1C(=O)NCCCOC(=O)CCCCCCCCCCC	0.78 µg/mL (≈ 0.993 µM)	12.5 µg/mL (≈ 15.9 µM)	> 100 µg/mL

SMILES	MIC [1]	MIC (Mycobacterium kansasii)	MIC [2]
CCC(CO)NC(=O)c1ccccc1SSc1ccccc1C(=O)NC(CC)CO (centres undefined)	12.5 µg/mL (≈ 27.9 µM)	25 µg/mL (≈ 55.7 µM)	25 µg/mL (≈ 55.7 µM)
O=C(Nc1cccc([N+](=O)[O-])c1)c1ccccc1SSc1ccccc1C(=O)Nc1cccc([N+](=O)[O-])c1	100 µg/mL (≈ 183 µM)	> 100 µg/mL	> 100 µg/mL
O=C(NCO)c1ccccc1SSc1ccccc1C(=O)NCO	6.25 µg/mL (≈ 17.1 µM)	25 µg/mL (≈ 68.6 µM)	25 µg/mL (≈ 68.6 µM)
O=C(c1ccccc1SSc1ccccc1C(=O)n1nnc2ccccc21)n1nnc2ccccc21	> 100 µg/mL	> 100 µg/mL	> 100 µg/mL
CCCCCCCCCCCC(=O)OC(C)CNC(=O)c1ccccc1SSc1ccccc1C(=O)NCC(C)OC(=O)CCCCCCCCCCC (centres undefined)	3.13 µg/mL (≈ 3.99 µM)	50 µg/mL (≈ 63.7 µM)	100 µg/mL (≈ 127 µM)
CCC(CO)(CO)NC(=O)c1ccccc1SSc1ccccc1C(=O)NC(CC)(CO)CO	25 µg/mL (≈ 49.1 µM)	25 µg/mL (≈ 49.1 µM)	100 µg/mL (≈ 197 µM)
CCOCCCNC(=O)c1ccccc1SSc1ccccc1C(=O)NCCCOCC	1.56 µg/mL (≈ 3.27 µM)	12.5 µg/mL (≈ 26.2 µM)	12.5 µg/mL (≈ 26.2 µM)
O=c1c2ccccc2sn1CCO	12.5 µg/mL (≈ 64 µM)	25 µg/mL (≈ 128 µM)	12.5 µg/mL (≈ 64 µM)
CCCCCCCCCCCC(=O)OCCNC(=O)c1ccccc1SSc1ccccc1C(=O)NCCOC(=O)CCCCCCCCCCC	6.25 µg/mL (≈ 8.26 µM)	25 µg/mL (≈ 33 µM)	100 µg/mL (≈ 132 µM)
CCCCN(CCCC)C(=O)c1ccccc1SSc1ccccc1C(=O)N(CCCC)CCCC	6.25 µg/mL (≈ 11.8 µM)	25 µg/mL (≈ 47.3 µM)	25 µg/mL (≈ 47.3 µM)
CCCCCCCCCCCCCCCC(=O)OCCCNC(=O)c1ccccc1SSc1ccccc1C(=O)NCCCOC(=O)CCCCCCCCCCCCCCC	50 µg/mL (≈ 55.7 µM)	100 µg/mL (≈ 111 µM)	> 100 µg/mL
CCCCCCCCCCCCNC(=O)c1ccccc1SSc1ccccc1C(=O)NCCCCCCCCCCCC	3.13 µg/mL (≈ 4.88 µM)	25 µg/mL (≈ 39 µM)	50 µg/mL (≈ 78 µM)
O=C(O)Cc1ccc(NC(=O)c2ccccc2SSc2ccccc2C(=O)Nc2ccc(CC(=O)O)cc2)cc1	100 µg/mL (≈ 175 µM)	100 µg/mL (≈ 175 µM)	100 µg/mL (≈ 175 µM)
O=C(NCc1ccco1)c1ccccc1SSc1ccccc1C(=O)NCc1ccco1	25 µg/mL (≈ 53.8 µM)	25 µg/mL (≈ 53.8 µM)	25 µg/mL (≈ 53.8 µM)
O=C(Nc1cccc(Cl)c1)c1ccccc1SSc1ccccc1C(=O)Nc1cccc(Cl)c1	3.13 µg/mL (≈ 5.96 µM)	12.5 µg/mL (≈ 23.8 µM)	25 µg/mL (≈ 47.6 µM)
CCCCC(CC)CNC(=O)c1ccccc1SSc1ccccc1C(=O)NCC(CC)CCCC (centres undefined)	1.56 µg/mL (≈ 2.95 µM)	3.13 µg/mL (≈ 5.92 µM)	50 µg/mL (≈ 94.5 µM)
CC(=O)OCCCNC(=O)c1ccccc1SSc1ccccc1C(=O)NCCCOC(C)=O	12.5 µg/mL (≈ 24.8 µM)	25 µg/mL (≈ 49.5 µM)	25 µg/mL (≈ 49.5 µM)
O=C(Nc1ccc2ccccc2c1)c1ccccc1SSc1ccccc1C(=O)Nc1ccc2ccccc2c1	1.56 µg/mL (≈ 2.8 µM)	6.25 µg/mL (≈ 11.2 µM)	6.25 µg/mL (≈ 11.2 µM)
CCCCCCCCCCCCCCCCCCCC(=O)OCCCNC(=O)c1ccccc1SSc1ccccc1C(=O)NCCCOC(=O)CCCCCCCCCCCCCCCCCCC	> 100 µg/mL	> 100 µg/mL	> 100 µg/mL
CC(O)Cn1sc2ccccc2c1=O (centres undefined)	12.5 µg/mL (≈ 59.7 µM)	25 µg/mL (≈ 119 µM)	12.5 µg/mL (≈ 59.7 µM)
O=C(Nc1ccccc1Cl)c1ccccc1SSc1ccccc1C(=O)Nc1ccccc1Cl	25 µg/mL (≈ 47.6 µM)	100 µg/mL (≈ 190 µM)	> 100 µg/mL

SMILES	MIC [1]	MIC (Mycobacterium kansasii)	MIC [2]
CCNC(=O)OCCNC(=O)c1ccccc1SSc1ccccc1C(=O)NCCOC(=O)NCC	25 µg/mL (≈ 46.8 µM)	25 µg/mL (≈ 46.8 µM)	25 µg/mL (≈ 46.8 µM)
CCOC(=O)c1ccc(NC(=O)c2ccccc2SSc2ccccc2C(=O)Nc2ccc(C(=O)OCC)cc2)cc1	3.13 µg/mL (≈ 5.21 µM)	25 µg/mL (≈ 41.6 µM)	25 µg/mL (≈ 41.6 µM)
CC(C)(CO)NC(=O)c1ccccc1SSc1ccccc1C(=O)NC(C)(C)CO	12.5 µg/mL (≈ 27.9 µM)	12.5 µg/mL (≈ 27.9 µM)	12.5 µg/mL (≈ 27.9 µM)
CCCCCCCCCCNC(=O)c1ccccc1SSc1ccccc1C(=O)NCCCCCCCCCC	12.5 µg/mL (≈ 21.4 µM)	12.5 µg/mL (≈ 21.4 µM)	25 µg/mL (≈ 42.7 µM)
CCCCCCC(=O)OCCCNC(=O)c1ccccc1SSc1ccccc1C(=O)NCCCOC(=O)CCCCCC	0.78 µg/mL (≈ 1.21 µM)	0.39 µg/mL (≈ 0.605 µM)	12.5 µg/mL (≈ 19.4 µM)
O=C(NCCO)c1ccccc1SSc1ccccc1C(=O)NCCO	6.25 µg/mL (≈ 15.9 µM)	25 µg/mL (≈ 63.7 µM)	25 µg/mL (≈ 63.7 µM)
CCOC(CN1CCN(C(=O)c2ccccc2SSc2ccccc2C(=O)N2CCN(CC(OCC)c3ccccc3)CC2)CC1)c1ccccc1 (centres undefined)	> 100 µg/mL	> 100 µg/mL	> 100 µg/mL
O=C(Nc1ccc(Cl)c2ccccc12)c1ccccc1SSc1ccccc1C(=O)Nc1ccc(Cl)c2ccccc12	12.5 µg/mL (≈ 20 µM)	50 µg/mL (≈ 79.9 µM)	> 100 µg/mL
CCc1cc(CC)cc(NC(=O)c2ccccc2SSc2ccccc2C(=O)Nc2cc(CC)cc(CC)c2)c1	> 100 µg/mL	> 100 µg/mL	> 100 µg/mL
O=C(NC1CCCCC1)c1ccccc1SSc1ccccc1C(=O)NC1CCCCC1	12.5 µg/mL (≈ 26.7 µM)	100 µg/mL (≈ 213 µM)	> 100 µg/mL
CCCC(=O)OCCCNC(=O)c1ccccc1SSc1ccccc1C(=O)NCCCOC(=O)CCC	6.25 µg/mL (≈ 11.1 µM)	6.25 µg/mL (≈ 11.1 µM)	25 µg/mL (≈ 44.6 µM)
O=C(Nc1cccc2ccc(O)cc12)c1ccccc1SSc1ccccc1C(=O)Nc1cccc2ccc(O)cc12	50 µg/mL (≈ 84.9 µM)	50 µg/mL (≈ 84.9 µM)	50 µg/mL (≈ 84.9 µM)
O=C(c1ccccc1SSc1ccccc1C(=O)N1CCOCC1)N1CCOCC1	12.5 µg/mL (≈ 28.1 µM)	> 100 µg/mL	> 100 µg/mL
O=C(Nc1cccc2cccnc12)c1ccccc1SSc1ccccc1C(=O)Nc1cccc2cccnc12	25 µg/mL (≈ 44.7 µM)	100 µg/mL (≈ 179 µM)	> 100 µg/mL
O=C(NCCCCO)c1ccccc1SSc1ccccc1C(=O)NCCCCO	6.25 µg/mL (≈ 13.9 µM)	25 µg/mL (≈ 55.7 µM)	25 µg/mL (≈ 55.7 µM)
CC(O)CNC(=O)c1ccccc1SSc1ccccc1C(=O)NCC(C)O (centres undefined)	1.56 µg/mL (≈ 3.71 µM)	25 µg/mL (≈ 59.4 µM)	25 µg/mL (≈ 59.4 µM)
CC(O)CNC(=O)c1ccc(SSc2ccc(C(=O)NCC(C)O)cc2)cc1 (centres undefined)	100 µg/mL (≈ 238 µM)	> 100 µg/mL	> 100 µg/mL
CN1CCN(C(=O)c2ccccc2SSc2ccccc2C(=O)N2CCN(C)CC2)CC1.Cl.Cl	100 µg/mL	> 100 µg/mL	> 100 µg/mL
Cl.Cl.O=C(c1ccccc1SSc1ccccc1C(=O)N1CCN(C(c2ccccc2)c2ccccc2)CC1)N1CCN(C(c2ccccc2)c2ccccc2)CC1	> 100 µg/mL	> 100 µg/mL	> 100 µg/mL
Cl.Cl.O=C(NCC1CCNCC1)c1ccccc1SSc1ccccc1C(=O)NCC1CCNCC1	100 µg/mL	> 100 µg/mL	> 100 µg/mL
Cl.Cl.O=C(c1ccccc1SSc1ccccc1C(=O)N1CCN(Cc2ccccc2)CC1)N1CCN(Cc2ccccc2)CC1	25 µg/mL	50 µg/mL	> 100 µg/mL
